What was measured:
MDA-MB-468 = assay: Growth inhibition of human MDA-MB-468 cells at 10 uM incubated for 48 hrs by sulforhodamine B assay relative to control; assay type: functional; details: MDA-MB-468, 48 h, values are per cent of control
HCC 2998 = assay: Growth of human HCC2998 cells at 10 uM incubated for 48 hrs by sulforhodamine B assay relative to control; details: HCC 2998, 48 h
CCRF-CEM [1] = assay: Growth inhibition of human CCRF-CEM cells assessed as cell growth at 10^-5 M incubated for 48 hrs by sulforhodamine B assay relative to control; assay type: functional; details: read-out: Activity
SF-295 = assay: Growth of human SF295 cells at 10 uM incubated for 48 hrs by sulforhodamine B assay relative to control; details: SF-295, 48 h
Hs-578T = assay: Growth inhibition of human Hs 578T cells at 10 uM incubated for 48 hrs by sulforhodamine B assay relative to control; assay type: functional; details: values are per cent of control
UACC-62 = assay: Growth of human UACC62 cells at 10 uM incubated for 48 hrs by sulforhodamine B assay relative to control; details: UACC-62, 48 h
DU-145 = assay: Growth inhibition of human DU145 cells assessed as cell growth at 10^-5 M incubated for 48 hrs by sulforhodamine B assay relative to control; assay type: functional; details: DU-145, 48 h, read-out: Activity
IGROV-1 = assay: Growth of human IGROV1 cells at 10 uM incubated for 48 hrs by sulforhodamine B assay relative to control; details: IGROV-1, 48 h
786-0 = assay: Growth inhibition of human 786-0 cells at 10 uM incubated for 48 hrs by sulforhodamine B assay relative to control; assay type: functional; details: 786-0, 48 h, values are per cent of control
COLO 205 = assay: Growth of human COLO205 cells at 10 uM incubated for 48 hrs by sulforhodamine B assay relative to control; details: COLO 205, 48 h
MDA-MB-435 [2] = assay: Growth of human MDA-MB-435 cells at 10 uM incubated for 48 hrs by sulforhodamine B assay relative to control; details: MDA-MB-435, 48 h
M14 = assay: Growth of human M14 cells at 10 uM incubated for 48 hrs by sulforhodamine B assay relative to control; details: M14, 48 h
SK-MEL-5 = assay: Growth of human SK-MEL-5 cells at 10 uM incubated for 48 hrs by sulforhodamine B assay relative to control; details: SK-MEL-5, 48 h
A549 = assay: Growth of human A549/ATCC cells at 10 uM incubated for 48 hrs by sulforhodamine B assay relative to control; details: A549, 48 h
CCRF-CEM [3] = assay: Growth of human CCRF-CEM cells at 10 uM incubated for 48 hrs by sulforhodamine B assay relative to control
SK-MEL-2 = assay: Growth of human SK-MEL-2 cells at 10 uM incubated for 48 hrs by sulforhodamine B assay relative to control; details: SK-MEL-2, 48 h
MOLT-4 = assay: Growth of human MOLT4 cells at 10 uM incubated for 48 hrs by sulforhodamine B assay relative to control; details: MOLT-4, 48 h
OVCAR-8 = assay: Growth of human OVCAR8 cells at 10 uM incubated for 48 hrs by sulforhodamine B assay relative to control; details: OVCAR-8, 48 h
K562 = assay: Growth of human K562 cells at 10 uM incubated for 48 hrs by sulforhodamine B assay relative to control; details: K562, 48 h
OVCAR-4 [4] = assay: Growth inhibition of human OVCAR4 cells assessed as cell growth at 10^-8 M incubated for 48 hrs by sulforhodamine B assay relative to control; assay type: functional; details: OVCAR-4, 48 h, read-out: Activity
U-251 = assay: Growth of human U251 cells at 10 uM incubated for 48 hrs by sulforhodamine B assay relative to control; details: U-251, 48 h
KM12 = assay: Growth of human KM12 cells at 10 uM incubated for 48 hrs by sulforhodamine B assay relative to control; details: KM12, 48 h
OVCAR-4 [5] = assay: Growth inhibition of human OVCAR4 cells assessed as cell growth at 10^-5 M incubated for 48 hrs by sulforhodamine B assay relative to control; assay type: functional; details: OVCAR-4, 48 h, read-out: Activity
OVCAR-5 [6] = assay: Growth of human OVCAR5 cells at 10 uM incubated for 48 hrs by sulforhodamine B assay relative to control; details: OVCAR-5, 48 h
ACHN = assay: Growth inhibition of human ACHN cells assessed as cell growth at 10^-8 M incubated for 48 hrs by sulforhodamine B assay relative to control; assay type: functional; details: read-out: Activity
NCI-H226 = assay: Growth inhibition of human NCI-H226 cells at 10 uM incubated for 48 hrs by sulforhodamine B assay relative to control; assay type: functional; details: NCI-H226, 48 h, values are per cent of control
OVCAR-4 [7] = assay: Growth of human OVCAR4 cells at 10 uM incubated for 48 hrs by sulforhodamine B assay relative to control; details: OVCAR-4, 48 h
NCI-H23 = assay: Growth inhibition of human NCI-H23 cells at 10 uM incubated for 48 hrs by sulforhodamine B assay relative to control; assay type: functional; details: NCI-H23, 48 h, values are per cent of control
MDA-MB-435 [8] = assay: Growth inhibition of human MDA-MB-435 cells assessed as cell growth at 10^-7 M incubated for 48 hrs by sulforhodamine B assay relative to control; assay type: functional; details: MDA-MB-435, 48 h, read-out: Activity
PC-3 = assay: Growth inhibition of human PC3 cells at 10 uM incubated for 48 hrs by sulforhodamine B assay relative to control; assay type: functional; details: PC-3, 48 h, values are per cent of control
RXF 393 = assay: Growth inhibition of human RXF393 cells at 10 uM incubated for 48 hrs by sulforhodamine B assay relative to control; assay type: functional; details: RXF 393, 48 h, values are per cent of control
OVCAR-5 [9] = assay: Growth inhibition of human OVCAR5 cells assessed as cell growth at 10^-8 M incubated for 48 hrs by sulforhodamine B assay relative to control; assay type: functional; details: OVCAR-5, 48 h, read-out: Activity
HCT-15 = assay: Growth of human HCT15 cells at 10 uM incubated for 48 hrs by sulforhodamine B assay relative to control; details: HCT-15, 48 h

Structure (SMILES) | growth, % of control at 10 µM (MDA-MB-468) [%] | growth, % of control at 10 µM (HCC 2998) [%] | growth at 10 µM (CCRF-CEM [1]) [%] | growth, % of control at 10 µM (SF-295) [%] | growth, % of control at 10 µM (Hs-578T) [%] | growth, % of control at 10 µM (UACC-62) [%] | growth at 10 µM (DU-145) [%] | growth, % of control at 10 µM (IGROV-1) [%] | growth, % of control at 10 µM (786-0) [%] | growth, % of control at 10 µM (COLO 205) [%] | growth, % of control at 10 µM (MDA-MB-435 [2]) [%] | growth, % of control at 10 µM (M14) [%] | growth, % of control at 10 µM (SK-MEL-5) [%] | growth, % of control at 10 µM (A549) [%] | growth, % of control at 10 µM (CCRF-CEM [3]) [%] | growth, % of control at 10 µM (SK-MEL-2) [%] | growth, % of control at 10 µM (MOLT-4) [%] | growth, % of control at 10 µM (OVCAR-8) [%] | growth, % of control at 10 µM (K562) [%] | growth at 0.01 µM (OVCAR-4 [4]) [%] | also measured
CCS/C(Nc1ccccc1)=C(\C#N)C(=O)Nc1ccc(OC)cc1 | -2.63 | 55.2 | 11 | 32.6 | 27.4 | 27.2 | 13 | 55.7 | 39.5 | 17.5 | -47.9 | 15.2 | 17.8 | 34.6 | 8.29 | -0.34 | 10.1 | 31.2 | 7.34 | 104 | growth, % of control at 10 µM (U-251): 16.6%; growth, % of control at 10 µM (KM12): 31%; growth at 10 µM (OVCAR-4 [5]): 45%; growth, % of control at 10 µM (OVCAR-5 [6]): 63.1%; growth at 0.01 µM (ACHN): 101%; growth, % of control at 10 µM (NCI-H226): 57.9%; growth, % of control at 10 µM (OVCAR-4 [7]): 66.7%; growth, % of control at 10 µM (NCI-H23): 48.3%; growth at 0.1 µM (MDA-MB-435 [8]): 91%; growth, % of control at 10 µM (PC-3): 47.9%; growth, % of control at 10 µM (RXF 393): 39.5%; growth at 0.01 µM (OVCAR-5 [9]): 104%; growth, % of control at 10 µM (HCT-15): 16.9%
CCS/C(Nc1ccccc1)=C(\C#N)C(=O)N/N=C\c1ccc(Cl)cc1Cl | 19.6 | 48.4 | 16 | 17 | -6.44 | 26.6 | 12 | 49.1 | 31.8 | 28.4 | -34.5 | 21 | 12.4 | 38.3 | 9.86 | 28.3 | 18.3 | 28.6 | 7.35 | 98 | growth, % of control at 10 µM (U-251): 19.1%; growth, % of control at 10 µM (KM12): 28%; growth at 10 µM (OVCAR-4 [5]): 42%; growth, % of control at 10 µM (OVCAR-5 [6]): 72.5%; growth at 0.01 µM (ACHN): 102%; growth, % of control at 10 µM (NCI-H226): 37.7%; growth, % of control at 10 µM (OVCAR-4 [7]): 56.5%; growth, % of control at 10 µM (NCI-H23): 41.3%; growth at 0.1 µM (MDA-MB-435 [8]): 86%; growth, % of control at 10 µM (PC-3): 31.5%; growth, % of control at 10 µM (RXF 393): 2.63%; growth at 0.01 µM (OVCAR-5 [9]): 105%; growth, % of control at 10 µM (HCT-15): 19.9%
